{"source": "patent US8017135B1", "about": "“Lipid-drug conjugates for local therapy of eye diseases” (The Regents of the University of California, priority 2003, dated 2011)", "key": {"[1]": {"system": "HSV-1", "test": "HSV-1 rabbit retinitis treatment study", "assay_type": "in vivo", "details": "intravitreal drug after induction of retinitis; for thickness of the retina (histology): 5% dextrose eyes 46 μm, P<0.05", "protocol": "(§1) For the pharmacokinetic studies, the highest non toxic dose from the results of the toxicity studies, 100 μg/eye, was intravitreally injected into 24 eyes of 16 rabbits, and the remaining 8 eyes were injected with the same volume of 5% dextrose as control. Two animals, 3 eyes with drug and 1 eye with 5% dextrose, were used at each time point. The time points used were post-injections on day 1, day 3, week 1, week 2, week 3, week 5, week 8, and week 10. After animal sacrifice, globes were enucleated and kept on ice before freezing and dissecting. The globes were then submerged in −40 C.° 2-methylbutane in a beaker sitting in a dry ice ethanol bath for 30 seconds. The frozen globe was cut into two halves through the optic nerve and further dissected under a surgical microscope to separate the vitreous and retina. These different tissues from the same eyes were separately stored in the pre-weighed and pre-labeled glass vials. The vials were kept in −70 C for HPLC analysis. 3. HSV-1 rabbit retinitis treatment study of HDP-cCDV: For the retinitis intervention study, 72 rabbits were used, including 14 rabbits for the treatment study and 58 for the pretreatment study. Only the right eye of each rabbit was used. Ophthalmoscopic retinitis grading was performed using a previously reported method with a standardized grading scheme.^7 For the treatment study, the right eyes of 14 rabbits were intravitreally injected with 0.06 mL of a 5×10^−5 dilution of 10^−7.6 mean tissue culture infective dose (TCID 50)/mL HSV-1. When retinitis developed and reached grade 1 (earliest detected retinitis grade: 1 or 2), 5 infected eyes received 100 micrograms of HDP-cCDV in 0.1 mL 5% dextrose, 4 infected eyes received an equivalent dose of free CDV, and the other 5 infected eyes received 5% dextrose. For the pretreatment study, 100 μg/eye was tested. 58 rabbits were divided into four groups: the 21 day, 42 day, 68 day, and 98 day groups. 15 rabbits were used for each time point of the pretreatment study (except 13 rabbits were used for the 98 day time point). At each time point 5 rabbits received 100 micrograms (in 0.1 ml 5% dextrose) of HDP-cCDV, 5 rabbits received an equivalent dose of CDV, and 5 rabbits received 5% dextrose (for the 98 day pre-treatment only 3 rabbits were used for HDP-cCDV). The HSV-1 virus dose, injection method, and clinical retinitis grading were done as previously described.^2,7 Rabbits were killed 2 weeks after development of retinitis. Retinitis was graded on day 3, 5, 7, 9, 11, 14. Rabbits without retinitis 3 or 4 weeks after HSV-1 inoculation were sacrificed.\n4. Histologic evaluation of retinal damage and choroidal inflammation for the rabbit eyes in the treatment group. […] Thickness was measured with a reticule installed in the eyepiece of the microscope. […]"}, "[2]": {"system": "HSV-1", "test": "HSV-1 rabbit retinitis pretreatment study", "assay_type": "in vivo", "details": "for rabbits that developed retinitis: 3-week pretreatment, 100 μg/eye or equivalent dose", "protocol": "as §1\nFor the 3-week pretreatment study, all five rabbits that received intravitreal injection of 5% dextrose developed typical retinitis. In contrast, none of the rabbits that received the intravitreal injection of HDP-cCDV or CDV developed retinitis (Table 1). For the 47-day pretreatment, at day 7 after virus inoculation all control eyes developed retinitis with a median grade of 4. […] In contrast, out of 5 rabbits that received HDP-cCDV pretreatment, only 2 developed grade 2 retinitis. There is a significant difference in retinitis scores between HDP-cCDV pretreated eyes and CDV pretreated eyes or control eyes (p<0.05, Nonparametric Tukey-type tests). […] The other two groups (10 eyes) with dextrose or CDV pretreatment all had grade 4 retinitis. The difference in retinitis scores among the three groups was very significant (P=0.0046, Kruskal-Wallis Tests) (Table 1). For the 100-day pretreatment study, one of four rabbits in the HDP-cCDV pretreated group died before virus inoculation. […] The HDP-cCDV pretreated group had lower retinitis scores than the retinitis scores in the dextrose pretreated group (P<0.05, Nonparametric Tukey-type tests)."}, "[3]": {"details": "literature comparison; cited from earlier work"}, "[4]": {"system": "HSV-1", "details": "single intravitreal injection; cited from earlier work"}, "[5]": {"test": "HDP-P-Ara G intravitreal toxicity"}, "[6]": {"system": "laser induced rat CNV", "test": "Prophylactic treatment of laser induced rat CNV (fluorescein angiograph)", "assay_type": "in vivo", "text": "The retina was normal elsewhere.\nAra-G has been used as an antiproliferative agent to treat human leukemia and lymphoma.^11,12 Ara-G can cause apoptosis of fast growing cells by incorporating into the cell's DNA to inhibit the proliferation.^13 Normal cells in the retina are differentiated cell populations and are not sensitive to Ara-G. In contrast, abnormal proliferating cells in proliferative vitreoretinopathy experience vigorous DNA synthesis and are sensitive to Ara-G. The lipid prodrug of Ara-G was chosen to be useful to treat proliferative vitreoretinopathy or other intraocular proliferating disorders. […] No intraocular drug toxicity was observed except for the local retina contact induced retinal toxicity from the high dose injections. It was hypothesized that the local retinal toxicity could be eliminated by using small crystalline particles, especially when used in a human eye with a much larger vitreous volume than rabbit (4 ml in human eye versus 1.4 ml in rabbit eye). To quickly gather the therapeutic data of this new compound on proliferation, 3 μg of HDP-P-Ara G (equivalent to 75 μg in the rabbit eye [(25+125)/2]) was injected into the right eye of each rat 3 days before induction of CNV by laser. The drug led to a 39% reduction of leaking laser burns in this CNV rat model (39% versus 66%, p=0.009). […] HDP-P-Ara G could be useful for prevention or treatment of the devastating sight-threatening eye disease, age related macular degeneration."}, "[7]": {"details": "previously determined; cited from earlier work"}, "[8]": {"test": "Intravitreal toxicity of HDP-cCDV", "assay_type": "in vivo, rabbit", "protocol": "All procedures were adherent to the ARVO Statement for the Use of Animals in Ophthalmic and Vision Research Intravitreal pharmacokinetics of small particle formulation of HDP-P-GCV: Three rabbits received 8.85 μmoles of the drug in their right eyes and 2.8 μmoles in the left eye. 2.8 μmole was previously determined to be non toxic.^2 Vitreous sampling was performed on both eyes of each rabbit at post injection week 1, week 2, week 3, week 5, week 8, week 12, and week 15. 50 to 100 μl of vitreous fluid was aspirated and placed in a pre-weighed vial for HPLC analysis of HDP-P-GCV levels as described before. 2. Intravitreal toxicity and pharmacokinetics of HDP-cCDV: For toxicity studies, five doses (10 μg or 0.018 μmole, 55 μg or 0.1 μmole, 100 μg or 0.18 μmole, 550 μg or 1.01 μmole, 1000 μg or 1.84 μmole in 50 μl of 5% dextrose) were tested in 8 rabbits, 16 eyes for 8 weeks. One eye of each animal was injected with drug and the fellow eye was injected with 5% dextrose as the control. Before drug injection, baseline IOP and fundus examination were documented. Drug or 5% dextrose was intravitreally injected into vitreous cavity as previously described.^2 After injection, eyes were monitored with a hand held tonometer (Tonopen, Medtronic, Jacksonville, Fla.), slit-lamp, and indirect ophthalmoscope at day 3, week 1, week 2, week 3, week 5, and week 8. […]"}, "[9]": {"details": "rabbit, in vivo, 100 ug", "protocol": "For the pharmacokinetic studies, the highest non toxic dose from the results of the toxicity studies, 100 μg/eye, was intravitreally injected into 24 eyes of 16 rabbits, and the remaining 8 eyes were injected with the same volume of 5% dextrose as control. Two animals, 3 eyes with drug and 1 eye with 5% dextrose, were used at each time point. The time points used were post-injections on day 1, day 3, week 1, week 2, week 3, week 5, week 8, and week 10. After animal sacrifice, globes were enucleated and kept on ice before freezing and dissecting. The globes were then submerged in −40 C.° 2-methylbutane in a beaker sitting in a dry ice ethanol bath for 30 seconds. The frozen globe was cut into two halves through the optic nerve and further dissected under a surgical microscope to separate the vitreous and retina. These different tissues from the same eyes were separately stored in the pre-weighed and pre-labeled glass vials. The vials were kept in −70 C for HPLC analysis. 3. […] When retinitis developed and reached grade 1 (earliest detected retinitis grade: 1 or 2), 5 infected eyes received 100 micrograms of HDP-cCDV in 0.1 mL 5% dextrose, 4 infected eyes received an equivalent dose of free CDV, and the other 5 infected eyes received 5% dextrose. […]"}, "[10]": {"test": "Laser light scattering particle size analysis", "assay_type": "physicochemical", "details": "dry powder, laser diffraction", "protocol": "Unmodified HDP-P-GCV and microfluidized HDP-P-GCV were subjected to laser light scattering particle size analysis at Cirrus Pharmaceuticals, Inc., Durham, N.C. Measurements were performed using a HELOS laser diffraction instrument (Sympatec, Lawrenceville, N.J.), equipped with a R3 lens (0.5 to 175 microns).\nFor each measurement, approximately 100 mg of dry sample was dispersed at a feed rate of 75% using the VIBRI and RODOS attachments set at a main pressure of 4.0 bar and aventury pressure of 100 mbar. The triggering conditions were set to start measurement when channel 25 e 1% and stop when channel 25 d 0.5%. Data were analyzed using the Fraunhoffer method by mean of the WINDOX 3.2 release 4 software. HDP-cCDV: cCDV was prepared from CDV as described previously^3 except that the compound was isolated as the dicyclohexyl-morpholinocarboxamidine salt. The scheme of the synthesis is illustrated in FIG. 1. The purity (greater than 98%) of these compounds used in this study was confirmed by thin layer chromatography, nuclear magnetic resonance spectroscopy, and mass spectroscopy as reported previously.^4,5\nAn aqueous slurry of HDP-P-GCV was subjected to five consecutive cycles of microfluidization. […] Finally, an untreated formulation of HDP-cCDV powder (Panel C) was also analyzed."}, "[11]": {"details": "47-day pretreatment, day 7 after virus inoculation"}, "[12]": {"details": "68-day pretreatment, day 14 following virus inoculation"}}, "note": "Values joined by “and” are separate entries in the source; they are usually repeats but may differ in a detail not shown here. Equal entries are not always repeated. “Also recorded” adds a separate entry of the source."}
{"smiles": "Nc1ccn(C[C@@H](CO)OCP(=O)(O)O)c(=O)n1", "note": "[CDV, cidofovir, reference compound]", "values": [{"measurement": "vitreous cloudiness", "setting": "[1]", "result": "noticeably less severe than the control eyes"}, {"measurement": "thickness of the retina (histology)", "setting": "[1]", "result": 95, "unit": "μm"}, {"measurement": "rabbits that developed retinitis", "setting": "[2]", "result": "none"}, {"measurement": "median retinitis grade", "setting": "[2]; [11]", "result": 3}, {"measurement": "rabbits that developed retinitis (out of 5)", "setting": "[2]; [11]", "result": "all developed retinitis"}, {"measurement": "retinitis grade", "setting": "[2]; [12]", "result": 4}, {"measurement": "vitreous half-life", "setting": "[3]", "result": 20, "unit": "h"}]}
{"smiles": "Nc1nc(O)c2ncn(COC(CO)CO)c2n1", "note": "[GCV, ganciclovir, reference compound]", "values": [{"measurement": "duration of prevention of HSV-1 viral infection of retina", "setting": "[4]", "result": "less than one-week protection"}]}
{"smiles": "CCCCCCCCCCCCCCCCOCCCOP(=O)(O)OCC1OC(n2cnc3c(=O)[nH]c(N)nc32)C(O)C1O", "note": "(stereo not shown) [HDP-P-Ara G, 1-O-hexadecyloxypropyl-phospho-arabinofuranosylguanosine]", "values": [{"measurement": "pathology study", "setting": "[5]; 25 μg intravitreal injections", "result": "no toxicity"}, {"measurement": "pathology study", "setting": "[5]; 125 μg intravitreal injections", "result": "localized retinal structural disturbance and proliferation or hypertrophy of retinal pigment epithelium"}, {"measurement": "ERGs", "setting": "[5]; all eyes including the ones with local retinal toxicity", "result": "normal"}, {"measurement": "clinical toxicity observation", "setting": "[5]; high dose (125 μg/eye), where drug depot touched the retina", "result": "local retinal toxicity that presented as a local retinal disturbance of fundus pigmentation; also recorded: local retinal depigmentation area"}, {"measurement": "time drug depot was observable", "setting": "[5]; low dose (25 μg/eye)", "result": 2, "unit": "weeks"}, {"measurement": "retinal toxicity in the rat eyes", "setting": "[6]; 3 μg intravitreal", "result": "did not cause any retinal toxicity"}, {"measurement": "reduction of CNV formation (leaking laser burns)", "setting": "[6]; 3 μg intravitreal 3 days before laser, versus control eyes", "result": 39, "unit": "%"}, {"measurement": "burns actively leaking in treated eyes", "setting": "[6]; 3 μg intravitreal 3 days before laser, control eyes 66%, p=0.009", "result": "40% and 39%"}]}
{"smiles": "CCCCCCCCCCCCCCCCOCCCOP(=O)(O)OCC(CO)OCn1cnc2c(=O)[nH]c(N)nc21", "note": "(stereo not shown) [HDP-P-GCV, Hexadecylpropanediol-3-phospho-ganciclovir]", "values": [{"measurement": "duration of prevention of HSV-1 viral infection of retina", "setting": "[4]", "result": 20, "unit": "weeks"}, {"measurement": "non toxic intravitreal dose", "setting": "[7]", "result": 2.8, "unit": "µmol"}]}
{"smiles": "CCCCCCCCCCCCCCCCOCCCOP1(=O)COC(Cn2ccc(N)nc2=O)CO1", "note": "(stereo not shown) [HDP-cCDV, 1-O-hexadecyloxypropyl-cyclic-cidofovir]", "values": [{"measurement": "vitreous cloudiness", "setting": "[1]", "result": "noticeably less severe than the control eyes"}, {"measurement": "thickness of the retina (histology)", "setting": "[1]", "result": 80, "unit": "μm"}, {"measurement": "rabbits that developed retinitis", "setting": "[2]", "result": "none"}, {"measurement": "rabbits that developed retinitis (out of 5)", "setting": "[2]; [11]", "result": 2}, {"measurement": "retinitis grade of the rabbits that developed retinitis", "setting": "[2]; [11]", "result": 2}, {"measurement": "retinitis outcome", "setting": "[2]; [12]", "result": "only two rabbits developed grade 3 and grade 4 retinitis, the other three rabbits had complete protection"}, {"measurement": "retinitis outcome", "setting": "[2]; 100-day pretreatment, three rabbits, day 9", "result": "one did not develop retinitis, and the other two had grade 3 retinitis"}, {"measurement": "duration of pharmacologic effect against HSV-1 infection of the rabbit retina", "setting": "[2]; single intravitreal pretreatment 100 μg/eye", "result": "at least 100 days"}, {"measurement": "toxicity findings", "setting": "[8]; 550 μg/eye and 1000 μg doses, one eye each", "result": "local cataract and mild iritis in two eyes"}, {"measurement": "highest non-toxic dose", "setting": "[8]; intravitreal injection, 8 weeks observation", "result": 100, "unit": "μg/eye"}, {"measurement": "estimated vitreous half-life", "setting": "[9]", "result": 151, "unit": "h"}, {"measurement": "volume median diameter (×50)", "setting": "[10]", "result": 8.9, "unit": "microns"}]}
{"smiles": "Nc1ccn(C[C@H]2COP(=O)(O)CO2)c(=O)n1", "note": "[cCDV, cyclic cidofovir]", "values": [{"measurement": "vitreous half-life", "setting": "[3]", "result": 10, "unit": "h"}]}
